One data set deals with T1, c-MET (Homo sapiens, UniProt P08581).
T1 construct: The recombinant DNA His-Tev-MET (956-1390) in pFastBac(Invitrogen); His (N, cleaved yes); Tev (TEV protease site) (N, cleaved yes); made in house; host or cells: SF21 insect cells (baculovirus, pFastBac)
Put plainly: Test A: HTRF Met test in 96-well format. The data set is classed as biochemical. The essentials:
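The kinase was the Sf21-expressed MET cytoplasmic domain (956–1390), His tag removed, used at 5 nM with compound (0.17 nM–10 µM, 3% DMSO) in 10 mM MOPS pH 7.4. Poly-GAT 1 µg/ml, 10 µM ATP and 5 mM MgCl2 reacted 10 min at RT. After an EDTA stop, phosphotyrosine was detected by HTRF (665/620 ratio).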

The test system of another data set is MKN45 cells. Kind of data set: Test D: cellular proliferation by 14C-thymidine pulse, MKN45 cells. The data set is classed as cell-based. The following applies: Homo sapiens, MKN-45, cellular proliferation by 14C-thymidine pulse; cell line not stated (HCT116 or MKN45). The procedure, abridged:
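MKN45 cells (7500/well, RPMI + 10% foetal calf serum) treated with 10 concentrations, 10000 to 0.3 nM in 3-fold steps, duplicate. 14C-thymidine (0.1 μCi/well) added at 72 h; incorporation counted after 24 h pulse, 96 h total treatment.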

The values below come from US8188078B2 (Sanofi-Aventis, priority 2007, dated 2012).

Where only a bound is given, the exact number is not on record here.

T1 sequence (P08581 956-1390): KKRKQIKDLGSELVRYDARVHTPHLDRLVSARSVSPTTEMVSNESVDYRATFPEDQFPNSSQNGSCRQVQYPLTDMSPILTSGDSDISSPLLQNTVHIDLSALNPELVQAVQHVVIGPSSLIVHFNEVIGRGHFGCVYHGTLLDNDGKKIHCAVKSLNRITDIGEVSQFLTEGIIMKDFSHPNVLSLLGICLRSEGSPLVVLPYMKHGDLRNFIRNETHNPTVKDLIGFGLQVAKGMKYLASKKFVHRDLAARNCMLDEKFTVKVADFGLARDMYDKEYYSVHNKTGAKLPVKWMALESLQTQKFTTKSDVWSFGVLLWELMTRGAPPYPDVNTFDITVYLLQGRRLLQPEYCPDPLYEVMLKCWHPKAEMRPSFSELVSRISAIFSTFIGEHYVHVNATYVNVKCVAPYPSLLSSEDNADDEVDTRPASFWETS

With `CCN1CCN(CCNC(=O)Nc2nc3cc(F)c(OC(C)c4c(Cl)ccc(F)c4Cl)cc3s2)CC1` (stereo not drawn) [Example 100, 1-{6-[1-(2,6-dichloro-3-fluorophenyl)ethoxy]-5-fluoro-1,3-benzothiazol-2-yl}-3-[2-(4-ethylpiperazin-1-yl)ethyl]urea], the melting point (commonly the temperature, or range, at which the solid turns liquid) fell in the range of 150 to 152 °C. For the same molecule, the IC50 – broadly, the concentration needed to halve the response being measured – against c-MET was less than 100 nM. Also, the IC50 with MKN45 cells is less than 500 nM.
For `CC(Oc1ccc2nc(NC(=O)NCCN3CCNCC3)sc2c1)c1c(Cl)ccc(F)c1Cl.O=C(O)C(F)(F)F` (stereo not drawn) [Example 37, 1-{6-[1-(2,6-Dichloro-3-fluorophenyl)ethoxy]-1,3-benzothiazol-2-yl}-3-(2-piperazin-1-ylethyl)urea trifluoroacetate] the same measures were 138 to 169 °C, 100 to 10000 nM and 500 to 10000 nM.
The molecule `CC(Oc1cc2sc(NC(=O)NCCN3CCN(C)CC3)nc2cc1F)c1c(F)ccc(Cl)c1Cl` (stereo not drawn) [Example 115, 1-{6-[1-(2,3-dichloro-6-fluorophenyl)ethoxy]-5-fluoro-1,3-benzothiazol-2-yl}-3-[2-(4-methylpiperazin-1-yl)ethyl]urea] showed a melting point of 120 °C. In addition, the IC50 against c-MET was less than 100 nM. Moreover, the IC50 in the data set with MKN45 cells was less than 500 nM.
Taken in the same sequence, the figures for `CC(Oc1ccc2nc(NC(=O)NCCN3CCOCC3)sc2c1)c1c(F)ccc(Cl)c1Cl` (stereo not drawn) [Example 61, 1-{6-[1-(2,3-dichloro-6-fluorophenyl)ethoxy]-1,3-benzothiazol-2-yl}-3-(2-morpholin-4-ylethyl)urea] were 200 °C, less than 100 nM and less than 500 nM.
Taken in the same sequence, the figures for `CC(Oc1ccc2nc(NC(=O)CCCN3CCOCC3)sc2c1)c1c(Cl)ccc(F)c1Cl` (stereo not drawn) [Example 65, N-{6-[1-(2,6-dichloro-3-fluorophenyl)ethoxy]-1,3-benzothiazol-2-yl}-4-(morpholin-4-yl)butanamide] were 141 to 145 °C, less than 100 nM and 500 to 10000 nM.
Molecule `O=C(NCCN1CCOCC1)Nc1nc2ccc(OC(c3c(Cl)cccc3Cl)C(F)(F)F)cc2s1` (stereo not drawn) [Example 64, 1-{6-[1-(2,6-dichlorophenyl)-2,2,2-trifluoroethoxy]-1,3-benzothiazol-2-yl}-3-(2-morpholin-4-ylethyl)urea] yielded a melting point of 150 to 160 °C. Moreover, the IC50 on c-MET is less than 100 nM. This molecule showed an IC50 in the data set on MKN45 cells greater than 10000 nM.
For `O=C(NCCN1CCOCC1)Nc1nc2cc(F)c(OCc3c(Cl)cccc3Cl)cc2s1` [Example 21, 1-{6-[(2,6-dichlorobenzyl)oxy]-5-fluoro-1,3-benzothiazol-2-yl}-3-(2-morpholin-4-ylethyl)urea], the melting point came to 206 °C. In addition, at c-MET, the IC50 is less than 100 nM. For the same molecule, the IC50 with MKN45 cells lay in the range of 500 to 10000 nM.
Taken in the same sequence, the figures for `CC(Oc1ccc2nc(NC(=O)NCCN3CCN(C(=O)OC(C)(C)C)CC3)sc2c1)c1c(Cl)ccc(F)c1Cl` (stereo not drawn) [Example 36, 1,1-dimethylethyl 4-{2-[({6-[1-(2,6-dichloro-3-fluorophenyl)ethoxy]-1,3-benzothiazol-2-yl}carbamoyl)amino]ethyl}piperazine-1-carboxylate] were 87 °C, less than 100 nM and greater than 10000 nM.
For `CC(Oc1ccc2nc(NC(=O)NCCN3CCOCC3)sc2c1)c1c(F)ccc(F)c1F` (stereo not drawn) [Example 60, 1-(2-morpholin-4-ylethyl)-3-{6-[1-(2,3,6-trifluorophenyl)ethoxy]-1,3-benzothiazol-2-yl}urea] the same measures were 187 °C, less than 100 nM and greater than 10000 nM.
Taken in the same sequence, the figures for `CC(Oc1cc2sc(NC(=O)NCCN3CCCC3)nc2cc1F)c1c(F)ccc(Cl)c1Cl` (stereo not drawn) [Example 118, 1-{6-[1-(2,3-dichloro-6-fluorophenyl)ethoxy]-5-fluoro-1,3-benzothiazol-2-yl}-3-[2-(pyrrolidin-1-yl)ethyl]urea] were 191 °C, less than 100 nM and 500 to 10000 nM.
`Cc1ccc(F)c(C(C)Oc2ccc3nc(NC(=O)NCCN4CCOCC4)sc3c2)c1Cl` (stereo not drawn) [Example 28, 1-{6-[1-(2-chloro-6-fluoro-3-methylphenyl)ethoxy]-1,3-benzothiazol-2-yl}-3-(2-morpholin-4-ylethyl)urea] came in with a melting point of 165 to 170 °C. This molecule also had an IC50 at c-MET of less than 100 nM. This molecule displayed an IC50 in the data set on MKN45 cells greater than 10000 nM.
Taken in the same sequence, the figures for `O=C(NCCN1CCOCC1)Nc1nc2ccc(OCc3c(Cl)cccc3Cl)cc2s1` [Example 10, 1-{6-[(2,6-dichlorobenzyl)oxy]-1,3-benzothiazol-2-yl}-3-(2-morpholin-4-ylethyl)urea] were 268 to 271 °C, less than 100 nM and 500 to 10000 nM.
Turning to `CC(Oc1cc2sc(NC(=O)NCCCO)nc2cc1F)c1c(Cl)ccc(F)c1Cl` (stereo not drawn) [Example 105, 1-{6-[1-(2,6-dichloro-3-fluorophenyl)ethoxy]-5-fluoro-1,3-benzothiazol-2-yl}-3-(3-hydroxypropyl)urea], the melting point was 158 °C. The molecule further gave an IC50 against c-MET of less than 100 nM. Moreover, the IC50 in the data set with MKN45 cells was in the range of 500 to 10000 nM.
Taken in the same sequence, the figures for `CC(Oc1cc2sc(NC(=O)CN3CCNCC3)nc2cc1F)c1c(Cl)ccc(F)c1Cl` (stereo not drawn) [Example 69, N-{6-[1-(2,6-dichloro-3-fluorophenyl)ethoxy]-5-fluoro-1,3-benzothiazol-2-yl}-2-(piperazin-1-yl)acetamide] were 188 to 190 °C, less than 100 nM and 500 to 10000 nM.
Taken in the same sequence, the figures for `CC(Oc1ccc2nc(NC(=O)C3CC3)sc2c1)c1c(Cl)ccc(F)c1Cl` (stereo not drawn) [Example 66, N-{6-[1-(2,6-dichloro-3-fluorophenyl)ethoxy]-1,3-benzothiazol-2-yl}cyclopropanecarboxamide] were 194 to 199 °C, less than 100 nM and 500 to 10000 nM.
For `CC(Oc1ccc2nc(NC(=O)NCCN3CCN(C)CC3)sc2c1)c1c(F)ccc(Cl)c1Cl` (stereo not drawn) [Example 108, 1-{6-[1-(2,3-dichloro-6-fluorophenyl)ethoxy]-1,3-benzothiazol-2-yl}-3-[2-(4-methylpiperazin-1-yl)ethyl]urea] the same measures were 105 to 110 °C, less than 100 nM and 500 to 10000 nM.
Consider `CC(Oc1cc2[nH]c(NC(=O)NCCN3CCOCC3)nc2cc1F)c1c(Cl)cccc1Cl` (stereo not drawn) [Example 5, 1-{6-[1-(2,6-dichlorophenyl)ethoxy]-5-fluoro-1H-benzimidazol-2-yl}-3-(2-morpholin-4-ylethyl)urea], for which the melting point was in the range of 210 to 216 °C. Moreover, the IC50 against c-MET was less than 100 nM. In the data set on MKN45 cells, this molecule returned a half-inhibitory concentration (IC50) of 500 to 10000 nM.
For `CC(Oc1cc2sc(NC(=O)NCCN3CCCC3)nc2cc1F)c1c(Cl)ccc(Cl)c1Cl` (stereo not drawn) [Example 126, 1-{5-fluoro-6-[1-(2,3,6-trichlorophenyl)ethoxy]-1,3-benzothiazol-2-yl}-3-[2-(pyrrolidin-1-yl)ethyl]urea] the same measures were 103 to 107 °C, less than 100 nM and 500 to 10000 nM.
Molecule `CC(Oc1cc2sc(NC(=O)NCCCN3CCCC3=O)nc2cc1F)c1c(F)ccc(Cl)c1Cl` (stereo not drawn) [Example 114, 1-{6-[1-(2,3-dichloro-6-fluorophenyl)ethoxy]-5-fluoro-1,3-benzothiazol-2-yl}-3-[3-(2-oxopyrrolidin-1-yl)propyl]urea] had a melting point of 195 °C. In addition, on c-MET, the IC50 is less than 100 nM. The IC50 in the data set on MKN45 cells lay in the range of 500 to 10000 nM.
Taken in the same sequence, the figures for `CC(Oc1ccc2nc(NC(=O)NCCN3CCCC3)sc2c1)c1c(Cl)ccc(Cl)c1Cl` (stereo not drawn) [Example 125, 1-[2-(pyrrolidin-1-yl)ethyl]-3-{6-[1-(2,3,6-trichlorophenyl)ethoxy]-1,3-benzothiazol-2-yl}urea] were 189 °C, less than 100 nM and 500 to 10000 nM.
For `CNCCCNC(=O)Nc1nc2cc(F)c(OC(C)c3c(Cl)ccc(F)c3Cl)cc2s1` (stereo not drawn) [Example 127, 1-{6-[1-(2,6-dichloro-3-fluorophenyl)ethoxy]-5-fluoro-1,3-benzothiazol-2-yl}-3-[3-(methylamino)propyl]urea] the same measures were 183 °C, less than 100 nM and 500 to 10000 nM.
For `CC(Oc1ccc2nc(NC(=O)NCCN3CCC(Cc4ccccc4)CC3)sc2c1)c1c(Cl)ccc(F)c1Cl` (stereo not drawn) [Example 34, 1-[2-(4-benzylpiperidin-1-yl)ethyl]-3-{6-[1-(2,6-dichloro-3-fluorophenyl)ethoxy]-1,3-benzothiazol-2-yl}urea] the same measures were 133 to 139 °C, less than 100 nM and greater than 10000 nM.
Consider `CC(Oc1ccc2nc(NC(=O)NCCN3CCN(Cc4ccccc4)CC3)sc2c1)c1c(Cl)ccc(F)c1Cl` (stereo not drawn) [Example 35, 1-[2-(4-benzylpiperazin-1-yl)ethyl]-3-{6-[1-(2,6-dichloro-3-fluorophenyl)ethoxy]-1,3-benzothiazol-2-yl}urea], for which the melting point was 125 to 139 °C. Moreover, the IC50 at c-MET was less than 100 nM. Also, the IC50 in the data set with MKN45 cells was greater than 10000 nM.
For `CC(Oc1ccc2nc(NC(=O)NCCC3CCCN3C)sc2c1)c1c(F)ccc(Cl)c1Cl` (stereo not drawn) [Example 110, 1-{6-[1-(2,3-dichloro-6-fluorophenyl)ethoxy]-1,3-benzothiazol-2-yl}-3-[2-(1-methylpyrrolidin-2-yl)ethyl]urea] the same measures were 102 to 105 °C, less than 100 nM and 500 to 10000 nM.
